What was measured:
[1] = xn = mol fraction of the nth substance listed; settings: 100 kPa, Liquid; for speed of sound: Frequency=3 MHz, Sing-around technique in a fixed-path interferometer; for mass density: Vibrating tube method
[2] = refractive index (Na D-line) (dimensionless); xn = mol fraction of the nth substance listed; settings: 100 kPa, Liquid, Standard Abbe refractometry

CCCC(C)=O [pentan-2-one] + CN(C)C=O
Settings | mass density, [1] [kg/m3] | refractive index, [2] | speed of sound, [1] [m/s]
293.15 K, x2 = 0 | 806.83 | 1.39026 | 1232.4
293.15 K, x2 = 0.056 | – | 1.39208 | –
293.15 K, x2 = 0.1141 | 819.616 | 1.39408 | 1254.3
293.15 K, x2 = 0.1516 | 823.961 | – | 1261.7
293.15 K, x2 = 0.1531 | – | 1.39541 | –
293.15 K, x2 = 0.2063 | 830.491 | 1.39735 | 1273
293.15 K, x2 = 0.2588 | 836.933 | 1.39918 | 1284
293.15 K, x2 = 0.3089 | 843.115 | 1.40106 | 1294.7
293.15 K, x2 = 0.3594 | 849.625 | 1.40295 | 1303.2
293.15 K, x2 = 0.4006 | 855.077 | 1.40453 | 1315.3
293.15 K, x2 = 0.4488 | 861.489 | 1.40643 | 1326.3
293.15 K, x2 = 0.4999 | 868.584 | 1.40845 | 1338.5
293.15 K, x2 = 0.5466 | 875.212 | 1.41036 | 1350
293.15 K, x2 = 0.5976 | – | 1.41245 | –
293.15 K, x2 = 0.5987 | 882.775 | – | 1363.1
293.15 K, x2 = 0.6581 | 891.66 | 1.41495 | 1378.4
293.15 K, x2 = 0.6992 | – | 1.41668 | –
293.15 K, x2 = 0.7528 | 906.494 | 1.41906 | 1404.2
293.15 K, x2 = 0.8029 | 914.576 | 1.42129 | 1418.1
293.15 K, x2 = 0.8461 | 921.84 | 1.42325 | 1430.7
293.15 K, x2 = 0.9017 | 931.277 | 1.42583 | 1446.8
293.15 K, x2 = 0.9496 | 939.704 | 1.42811 | 1460.9
298.15 K, x2 = 0 | 801.99 | 1.38793 | 1211.9
298.15 K, x2 = 0.0568 | 808.267 | 1.38979 | 1222.8
298.15 K, x2 = 0.1 | 813.221 | 1.39128 | 1231.3
298.15 K, x2 = 0.1526 | 819.25 | 1.3931 | 1241.7
298.15 K, x2 = 0.1895 | 823.621 | 1.39442 | 1249.2
298.15 K, x2 = 0.2545 | 831.549 | 1.3967 | 1262.9
298.15 K, x2 = 0.3298 | 841.051 | 1.39955 | 1279.3
298.15 K, x2 = 0.3502 | 843.666 | 1.40029 | 1283.9
298.15 K, x2 = 0.3956 | 849.557 | 1.40203 | 1294
298.15 K, x2 = 0.4567 | 857.796 | 1.40441 | 1308.5
298.15 K, x2 = 0.5084 | 865.012 | 1.4065 | 1320.8
298.15 K, x2 = 0.557 | 871.899 | 1.40855 | 1332.9
298.15 K, x2 = 0.6022 | 878.552 | 1.41039 | 1344.4
298.15 K, x2 = 0.6448 | 884.967 | 1.41217 | 1355.5
298.15 K, x2 = 0.7117 | 895.208 | 1.41498 | 1373.4
298.15 K, x2 = 0.7504 | 901.333 | – | 1384
298.15 K, x2 = 0.7511 | – | 1.41672 | –
298.15 K, x2 = 0.8027 | 909.784 | 1.41905 | 1398.7
298.15 K, x2 = 0.849 | 917.57 | 1.42117 | 1412.1
298.15 K, x2 = 0.9019 | 926.592 | 1.42364 | 1427.6
298.15 K, x2 = 0.9429 | 933.872 | 1.42557 | 1440.1
303.15 K, x2 = 0 | 796.73 | 1.38523 | 1191.7
303.15 K, x2 = 0.0581 | 803.204 | – | 1203
303.15 K, x2 = 0.0681 | – | 1.38748 | –
303.15 K, x2 = 0.1088 | 808.974 | – | 1212.9
303.15 K, x2 = 0.113 | – | 1.38906 | –
303.15 K, x2 = 0.1576 | – | 1.39062 | –
303.15 K, x2 = 0.16 | 815.007 | – | 1223.3
303.15 K, x2 = 0.1979 | – | 1.39212 | –
303.15 K, x2 = 0.2044 | 820.314 | – | 1232.5
303.15 K, x2 = 0.2343 | – | 1.39347 | –
303.15 K, x2 = 0.262 | 827.319 | – | 1244.6
303.15 K, x2 = 0.3046 | 832.689 | – | 1253.9
303.15 K, x2 = 0.3128 | – | 1.39635 | –
303.15 K, x2 = 0.3506 | 838.634 | – | 1264.1
303.15 K, x2 = 0.3603 | – | 1.3982 | –
303.15 K, x2 = 0.4014 | 845.319 | – | 1275.7
303.15 K, x2 = 0.4156 | – | 1.40034 | –
303.15 K, x2 = 0.4485 | – | 1.40167 | –
303.15 K, x2 = 0.482 | 856.31 | – | 1294.7
303.15 K, x2 = 0.4954 | – | 1.40355 | –
303.15 K, x2 = 0.5006 | 858.884 | – | 1299.1
303.15 K, x2 = 0.5407 | 864.591 | – | 1309
303.15 K, x2 = 0.5505 | – | 1.4058 | –
303.15 K, x2 = 0.5986 | – | 1.40783 | –
303.15 K, x2 = 0.5989 | 873.078 | – | 1323.9
303.15 K, x2 = 0.6407 | – | 1.40954 | –
303.15 K, x2 = 0.6467 | 880.175 | – | 1336.3
303.15 K, x2 = 0.6949 | 887.598 | – | 1349.2
303.15 K, x2 = 0.6952 | – | 1.41187 | –
303.15 K, x2 = 0.7401 | – | 1.41378 | –
303.15 K, x2 = 0.7518 | 896.616 | – | 1364.8
303.15 K, x2 = 0.7992 | – | 1.41643 | –
303.15 K, x2 = 0.8007 | 904.558 | – | 1378.6
303.15 K, x2 = 0.8527 | 913.274 | – | 1393.6
303.15 K, x2 = 0.8559 | – | 1.41908 | –
303.15 K, x2 = 0.8991 | 921.307 | – | 1407.5
303.15 K, x2 = 0.8994 | – | 1.42109 | –
303.15 K, x2 = 0.9411 | – | 1.42312 | –
303.15 K, x2 = 0.9485 | 929.946 | – | 1422.2

Reference: the NIST ThermoML archive (doi:10.1016/j.jct.2016.02.016)
